Measured values reported in patent US20230271949A1, “GLP-1R MODULATING COMPOUNDS” (ASCLETIS BIOSCIENCE CO., LTD., priority 2022, published 2023).

Target: GLP-1R (Homo sapiens, UniProt P43220)
Experiment: GLP-1R agonist cAMP stimulation assay (HTRF cAMP)
Format: cell-based
Conditions: HEK293 cell line expressing GLP-1 target; HTRF cAMP agonist mode, 30 min at RT
Protocol: cAMP Detection Kit, Cisbio (Cat #62AM4PEJ)
The cell line was constructed by WuXi.
2. Methods • a) The compound source plate preparation: • The reference 7-37 was diluted from 500 nM, 4-fold, 10 points in DMSO using Bravo. The compounds were diluted from […], 3-fold, 10 points in DMSO using Bravo. • b) Transfer of compounds: • 1) Use Echo transfer 100 nL cpd to the OptiPlate-384 plate. • 2) Spin the plates at 1000 rpm for 5 sec. • c) Cell suspension preparation: • 1) Thaw 1 vial of GLP-1 cells rapidly in 37° C. water bath. • 2) Transfer cell suspension into 10 ml of HBSS in a 15 ml conical tube. • 3) Centrifuge cells at 1000 rpm for 5 min at room temperature to pellet cells • 4) Gently aspirate supernatant being careful not to aspirate cells. • 5) Flick pellet to loose cells and re-suspend the cell pellet in 10 ml HBSS. Use a sterile pipette to pipette up and down to dislodge clumps. • 6) Count cells for concentration and to determine cell viability on Vi-cell. • 7) Re-suspend the GLP-1 cells in assay buffer at a concentration of 1.0×E5/mL cells. • 8) Transfer 10 μL GLP-1 cells to OptiPlate-384 plate. • d) HTRF cAMP Assay for agonist: • 1) Incubate the plate at RT for 30 min before adding the detection reagent. • 2) Add 10 μL each of detection reagent using Electric Multiple Channel Pipette. • 3) Cover the 384 plate with TopSeal-A film and incubate for 60 minutes at room temperature. • Remove the TopSeal-A, read on EnVision.
Create a new log (Inhibitor) vs response—Variable slope mode in Prism5.0 software, substitute the standard curve concentration (x) and its corresponding 665/615 data (y) into the model, convert the standard curve concentration (abscissa) by x=log(x), and make the standard curve through the converted xy.
Transform the data of 665/615 in the whole plate into a column of data, substitute it into y in the table of standard curve concentration (x) and 665/615 data (y), copy the x (interpolatedx) corresponding to automatic conversion by the software into a table, convert it into cAMP level by the formula x=10^(x), and reset the data into 384 distribution.
% Activity=(cAMP level−LC)/(HC−LC)*100% • Z factor: 1-3*(STD_HC+[…])/(HC-LC) • Assay Window: HC/LC • LC: The average cAMP level of adding DMSO wells • HC: The average cAMP level of adding the top concentration of reference compounds wells.
Create a new […] in Prism5.0 software, substitute the sample concentration (x) and its corresponding % Activity data (y) into the model, convert the standard curve concentration (abscissa) to x=log(x), and make the sample curve through the converted xy.

Chain of GLP-1R (P43220 24-463): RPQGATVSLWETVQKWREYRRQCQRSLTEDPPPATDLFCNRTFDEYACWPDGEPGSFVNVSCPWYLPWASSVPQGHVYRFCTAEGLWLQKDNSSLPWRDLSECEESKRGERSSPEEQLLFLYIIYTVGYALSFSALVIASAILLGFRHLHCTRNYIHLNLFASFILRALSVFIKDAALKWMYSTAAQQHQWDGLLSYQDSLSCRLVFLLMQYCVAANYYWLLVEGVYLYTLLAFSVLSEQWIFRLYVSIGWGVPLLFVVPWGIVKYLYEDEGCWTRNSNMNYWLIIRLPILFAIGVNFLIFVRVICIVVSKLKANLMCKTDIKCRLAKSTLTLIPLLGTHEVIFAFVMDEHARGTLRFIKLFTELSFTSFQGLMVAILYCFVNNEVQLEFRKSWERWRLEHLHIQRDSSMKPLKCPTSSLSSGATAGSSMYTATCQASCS

| EC50 [nM] | Structure (SMILES) |
| --- | --- |
| 1.99 | Cc1cc(NC(=O)c2ccc3nc(CN4CC=C(c5cccc(OCc6ccc(Cl)cc6F)n5)CC4)n(C[C@@H]4CCO4)c3c2)cc2c1NC(=O)C21CC1 [Compound 267] |
| 2.19 | Cc1n[nH]c2ccc(NC(=O)c3ccc4c(n3)nc(CN3CC=C(c5cccc(OCc6ccc(Cl)cc6F)n5)CC3)n4C[C@@H]3CCO3)cc12 [Compound 136] |
| 0.47 | Cc1cc(C(=O)Nc2ccc3c(c2)nc(CN2CC=C(c4cccc(OCc5ccc(Cl)cc5F)n4)CC2)n3C[C@@H]2CCO2)cc2cn[nH]c12 [Compound 199] |
| 0.42 | Cc1n[nH]c2ccc(C(=O)Nc3ccc4c(c3)nc(CN3CC=C(c5cccc(OCc6ccc(C#N)cc6F)n5)CC3)n4C[C@@H]3CCO3)cc12 [Compound 235] |
| 1.02 | O=C(Nc1ccc2[nH]c(=O)[nH]c2c1)c1ccc2nc(CN3CC=C(c4cccc(OCc5ccc(Cl)cc5F)n4)CC3)n(C[C@@H]3CCO3)c2c1 [Compound 270] |
| 0.63 | O=C(Nc1ccc2c(c1)nc(CN1CC=C(c3cccc(OCc4ccc(Cl)cc4F)n3)CC1)n2C[C@@H]1CCO1)c1ccc2[nH]ncc2c1 [Compound 204] |
| 0.44 | Cc1n[nH]c2c(C(F)F)cc(C(=O)Nc3ccc4c(c3)nc(CN3CC=C(c5cccc(OCc6ccc(Cl)cc6F)n5)CC3)n4C[C@@H]3CCO3)cc12 [Compound 220] |
| 2.98 | Cc1n[nH]c2c(C(F)(F)F)cc(C(=O)Nc3ccc4nc(CN5CC=C(c6cccc(OCc7ccc(Cl)cc7F)n6)CC5)n(CC5CCO5)c4c3)cc12 (centres unmarked) [Compound 287] |
| 12.5 | Cc1n[nH]c2c(C)cc(C(=O)Nc3ccc4c(c3)nc(C(F)(F)N3CC=C(c5cccc(OCc6ccc(Cl)cc6F)n5)CC3)n4C[C@@H]3CCO3)cc12 [Compound 256] |
| 5.21 | Cc1c[nH]c2c(C)cc(C(=O)Nc3ccc4c(c3)nc(CN3CC=C(c5cccc(OCc6ccc(Cl)cc6F)n5)CC3)n4C[C@@H]3CCO3)cc12 [Compound 390] |
| 0.42 | O=C(Nc1ccc2nc(CN3CC=C(c4cccc(OCc5ccc(Cl)cc5F)n4)CC3)n(C[C@@H]3CCO3)c2c1)c1ccc2[nH]c(=O)[nH]c2c1 [Compound 285] |
| 0.95 | Cc1n[nH]c2c(C)cc(C(=O)Nc3ccc4nc(CN5CC=C(c6cccc(OCc7ccc(Cl)cc7F)n6)CC5)n(CC5CCO5)c4c3)cc12 (centres unmarked) [Compound 279] |
| 3.87 | O=C(Nc1ccc2nc(CN3CC=C(c4cccc(OCc5ccc(Cl)cc5F)n4)CC3)n(C[C@@H]3CCO3)c2c1)c1cc(C(F)(F)F)c2c(c1)C1(CC1)C(=O)N2 [Compound 288] |

The remaining lines, values behind:

| Structure (SMILES) | EC50 [nM] |
| --- | --- |
| Cc1nc2cccc(COc3cccc(C4=CCN(Cc5nc6cc(C(=O)Nc7ccc8[nH]nc(C)c8c7)ccc6n5C[C@@H]5CCO5)CC4)n3)c2s1 [Compound 369] | 2.91 |
| O=C(Nc1ccc2[nH]ncc2c1)c1ccc2c(c1)nc(CN1CCC(c3cccc(OCc4ccc(Cl)cc4F)n3)CC1)n2C[C@@H]1CCO1 [Compound 87] | 10.1 |
| COCCn1c(Cc2ccc(-c3cccc(OCc4ccc(C#N)cc4F)n3)cc2)nc2cc(C(=O)NCCc3ccc(O)cc3)ccc21 [Compound 1, 2-(4-(6-((4-cyano-2-fluorobenzyl)oxy)pyridin-2-yl)benzyl)-N-(4-hydroxyphenethyl)-1-(2-methoxyethyl)-1H-benzo[d]imidazole-5-carboxamide] | 4150 |
| Cc1n[nH]c2ccc(C(=O)Nc3ccc4c(c3)nc(CN3CC=C(c5cccc6c5OC(C)(c5ccc(Cl)cc5F)O6)CC3)n4CC3CCO3)cc12 (centres unmarked) [Compound 306] | 0.56 |
| Cc1cc(NC(=O)c2ccc3c(c2)nc(CN2CCC(c4cccc5c4OC(C)(c4ccc(Cl)cc4F)O5)CC2)n3C[C@@H]2CCO2)cc2c1NC(=O)C21CC1 (some centres unmarked) [Compound 337] | 0.45 |
| Cc1n[nH]c2c(Cl)cc(NC(=O)c3ccc4c(c3)nc(CN3CC=C(c5cccc6c5OC(C)(c5ccc(Cl)cc5F)O6)CC3)n4CC3CCO3)cc12 (centres unmarked) [Compound 293] | 0.99 |
| CCn1cncc1Cn1c(CN2CCC(c3cccc(OCc4ccc(Cl)cc4F)n3)CC2)nc2cc(NC(=O)c3cc(F)c4[nH]nc(C)c4c3)ccc21 [Compound 259] | 0.91 |
| COCCn1c(CN2CCC(c3cccc(OCc4ccc(Cl)cc4F)n3)CC2)nc2cc(C(=O)NCCCc3ccc(O)cc3)ccc21 [Compound 25] | 756 |
| COCCn1c(CN2CCC(c3cccc(OCc4ccc(Cl)cc4F)n3)CC2)nc2cc(C(=O)N[C@@H]3CCc4nc(N)sc4C3)ccc21 [Compound 14] | 447 |
| CC1(c2ccc(Cl)cc2F)Oc2cccc(C3=CCN(Cc4nc5cc(C(=O)Nc6ccc7[nH]nc(C8CC8)c7c6)ccc5n4CC4CCO4)CC3)c2O1 (centres unmarked) [Compound 330] | 0.88 |
| COCCn1c(C2CC23CCN(c2cccc(OCc4ccc(C#N)cc4F)n2)CC3)nc2cc(C(=O)Nc3ccc4[nH]nc(C)c4c3)ccc21 (centres unmarked) [Compound 7] | 0.35 |
| O=C(Nc1ccn2ncc(Cl)c2c1)c1ccc2c(c1)nc(CN1CCC(c3cccc(OCc4ccc(Cl)cc4F)n3)CC1)n2CC1CCO1 (centres unmarked) [Compound 97] | 140 |
| O=C(Nc1cc(C(F)(F)F)c2[nH]nc(C3CC3)c2c1)c1ccc2c(c1)nc(CN1CCC(c3cccc(OCc4ccc(Cl)cc4F)n3)CC1)n2C[C@@H]1CCO1 [Compound 113] | 4.38 |
| O=C(NCC(=O)N1C[C@H](O)C[C@@H]1C(=O)O)c1ccc2c(c1)nc(CN1CCC(c3cccc(OCc4ccc(Cl)cc4F)n3)CC1)n2C[C@@H]1CCO1 [Compound 46] | 42.4 |
| CCc1n[nH]c2ccc(NC(=O)c3ccc4c(c3)nc(CN3CCC(c5cccc(OCc6ccc(C#N)cc6F)n5)CC3)n4C[C@@H]3CCO3)cc12 [Compound 135] | 1.25 |
| Cc1cc2c(C#N)ccc(COc3cccc(C4=CCN(Cc5nc6cc(C(=O)Nc7cc(F)c8[nH]nc(C)c8c7)ccc6n5C[C@@H]5CCO5)CC4)n3)c2o1 [Compound 353] | 0.44 |
| COCCn1c(CN2CCC(c3cccc(OCc4ccc(Cl)cc4F)n3)CC2)nc2cc(C(=O)Nc3ccc(O)cc3)ccc21 [Compound 75] | > 10000 |
| Cc1n[nH]c2ccc(NC(=O)c3ccc4c(c3)nc(CN3CC=C(c5cccc(OCc6ccc(C#N)c7ccccc67)n5)CC3)n4C[C@@H]3CCO3)cc12 [Compound 366] | 5.97 |
| Fc1cc(Cl)ccc1COc1cccc(C2=CCN(Cc3nc4ccc(CNc5cc(F)c6[nH]ncc6c5)cc4n3C[C@@H]3CCO3)CC2)n1 [Compound 268] | 3.64 |
| Cn1c(=O)[nH]c2ccc(NC(=O)c3ccc4c(c3)nc(CN3CCC(c5cccc(OCc6ccc(Cl)cc6F)n5)CC3)n4C[C@@H]3CCO3)cc21 [Compound 91] | 26.2 |
| Cc1n[nH]c2c(C(F)(F)F)cc(NC(=O)c3ccc4c(c3)nc(CN3CC=C(c5cccc6c5O[C@](C)(c5ccc(Cl)cc5F)O6)CC3)n4CC3CCO3)cc12 (some centres unmarked) [Compound 389] | 2.81 |
| O=C(Nc1cc(C(F)(F)F)c2[nH]ncc2c1)c1ccc2c(c1)nc(CN1CCC(c3cccc(OCc4ccc(Cl)cc4F)n3)CC1)n2C[C@@H]1CCO1 [Compound 108] | 2.39 |
| Cc1cc2c(C#N)ccc(COc3cccc(C4=CCN(Cc5nc6cc(C(=O)Nc7ccc8[nH]nc(C(F)(F)F)c8c7)ccc6n5C[C@@H]5CCO5)CC4)n3)c2o1 [Compound 356] | 2.21 |
| Cc1cc(NC(=O)c2ccc3c(c2)nc(CN2CC=C(c4cccc(OCc5ccc(C#N)cc5F)n4)CC2)n3C[C@@H]2CCO2)cc2cn[nH]c12 [Compound 188] | 1.19 |
| COCCn1c(CN2CCC(c3cccc(OCc4ccc(Cl)cc4F)n3)CC2)nc2cc(C(=O)NCC(CC(=O)O)c3ccccc3)ccc21 (centres unmarked) [Compound 41] | 376 |
